These results are taken from patent US20110230472A1, “RING-FUSED AZOLE DERIVATIVE HAVING PI3K-INHIBITING ACTIVITY” (Shionogi & Co., Ltd., priority 2008, published 2011).

For data set [1], the system named is Salmonella typhimurium TA98 line, TA100 line. As to the kind of experiment: FAT test (mutagenicity). Also on record: key: When the mutagenicity is negative, the compound is shown as (−); When positive, the compound is shown as (+). The settings on record: TA98 and TA100 lines; non-metabolism-activation and metabolism-activation conditions. How it is done:
20 μL of Salmonella enterica subsp. typhimurium (Salmonella typhimurium TA98 line, TA100 line) cryopreserved was inoculated to 10 mL of liquid nutrient medium (2.5% Oxoid nutrient broth No. 2) and then precultured at 37° C. for 10 hours with shaking. Regarding TA98 line, after 9 mL of a bacterial suspension was centrifuged (2000×g, 10 minutes) to remove the culture solution, the bacteria was suspended in 9 mL of Micro F buffer solution (K2HPO4: 3.5 g/L, KH2PO4: 1 g/L, (NH4)2SO4: 1 g/L, tri-sodium citric acid dihydrate: 0.25 g/L, MgSO4.7H2O: 0.1 g/L), and then added to 110 mL of Exposure media (Micro F buffer solution containing biotin: 8 μg/mL, histidine: 0.2 μg/mL, glucose: 8 mg/mL). Regarding TA 100 line, 120 mL of Exposure media was added to 3.16 mL of the bacterial suspension to prepare a test bacterial suspension. 12 μL of a solution of a test substance in DMSO (diluted eight times in a common ratio of 2 from the maximum dose of 50 mg/mL); 12 μL of DMSO as a negative control; 50 μg/mL 4-nitroquinoline-1-oxide solution in DMSO for TA98 line or 0.25 μg/mL 2-(2-furyl)-3-(5-nitro-2-furyl)acrylamide solution in DMSO as a positive control for TA 100 line in the case of a non-metabolism-activation condition; 12 μL of 40 μg/mL 2-aminoanthracene solution in DMSO for TA98 line or 20 μg/mL of 2-aminoanthracene solution in DMSO for TA100 line in the case of a metabolism-activation condition; were each mixed with 588 μL of the test bacterial suspension (in the case of a metabolism activation condition, a mixed solution of 498 μL of the test bacterial suspension and 90 μL S9 mix) and then cultured at 37° C. at 90 minutes with shaking. 460 μL of the bacterial suspension to which a test substance was exposed was mixed with 230 μL of Indicator media (a Micro F buffer solution containing 8 μg/mL biotin, 0.2 μg/mL histidine, 8 mg/mL glucose, and 37.5 μg/mL bromocresol purple). 50 μL thereof was dispensed to microplate 48 wells/dose and then statically cultured at 37° C. for 3 days. In a well containing bacteria which obtained proliferation potency by mutation of the amino acid (histidine) synthetase gene, the change of pH caused the color change from purple to yellow. Thus, in 48 wells per dose, the number of the bacteria-proliferation wells in which the color changed to yellow was counted, compared with a group of negative controls, and then evaluated. When the mutagenicity is negative, the compound is shown as (−). When positive, the compound is shown as (+).

Another data set addresses PI-3 kinase γ (Homo sapiens, UniProt P48736). Description: PI3Kγ inhibitory activity (Ki value), HTRF. Format: biochemical. The settings on record: Ki=IC50/(1+10 μM ATP/Km). Summed up:
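IC50 was measured by HTRF over 50-0.05 μmol/L compound and fitted by logistic approximation or two-point linear regression. ATP Km came from Lineweaver-Burk plots of HTRF signal at 0.625-80 μmol/L ATP. Ki = IC50/(1+10 μM/Km).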
(TR-FRET usually uses a lanthanide donor and a delayed reading to cut background.)

Data set [2] concerns AKT phosphorylation in human monocyte-like cell line THP-1. Description: AKT phosphorylation inhibitory activity in MCP-1-stimulated THP-1 cells (ELISA). Format: cell-based. As to conditions: 1 μmol/L solution of each compound, MCP-1 stimulation, read-out: AKT phosphorylation inhibition ratio. Summed up: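 THP-1 cells (6.6×10^6/mL in HBSS) were preincubated 5 min at 37° C with compound at 1 μmol/L (0.2% DMSO), then stimulated with MCP-1 for 30 s. After lysis, phospho-Akt Ser473 was measured by sandwich ELISA (A450); inhibition ratio used no-MCP-1 samples as 0% activity.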

PI-3 kinase γ, sequence (P48736 whole entry): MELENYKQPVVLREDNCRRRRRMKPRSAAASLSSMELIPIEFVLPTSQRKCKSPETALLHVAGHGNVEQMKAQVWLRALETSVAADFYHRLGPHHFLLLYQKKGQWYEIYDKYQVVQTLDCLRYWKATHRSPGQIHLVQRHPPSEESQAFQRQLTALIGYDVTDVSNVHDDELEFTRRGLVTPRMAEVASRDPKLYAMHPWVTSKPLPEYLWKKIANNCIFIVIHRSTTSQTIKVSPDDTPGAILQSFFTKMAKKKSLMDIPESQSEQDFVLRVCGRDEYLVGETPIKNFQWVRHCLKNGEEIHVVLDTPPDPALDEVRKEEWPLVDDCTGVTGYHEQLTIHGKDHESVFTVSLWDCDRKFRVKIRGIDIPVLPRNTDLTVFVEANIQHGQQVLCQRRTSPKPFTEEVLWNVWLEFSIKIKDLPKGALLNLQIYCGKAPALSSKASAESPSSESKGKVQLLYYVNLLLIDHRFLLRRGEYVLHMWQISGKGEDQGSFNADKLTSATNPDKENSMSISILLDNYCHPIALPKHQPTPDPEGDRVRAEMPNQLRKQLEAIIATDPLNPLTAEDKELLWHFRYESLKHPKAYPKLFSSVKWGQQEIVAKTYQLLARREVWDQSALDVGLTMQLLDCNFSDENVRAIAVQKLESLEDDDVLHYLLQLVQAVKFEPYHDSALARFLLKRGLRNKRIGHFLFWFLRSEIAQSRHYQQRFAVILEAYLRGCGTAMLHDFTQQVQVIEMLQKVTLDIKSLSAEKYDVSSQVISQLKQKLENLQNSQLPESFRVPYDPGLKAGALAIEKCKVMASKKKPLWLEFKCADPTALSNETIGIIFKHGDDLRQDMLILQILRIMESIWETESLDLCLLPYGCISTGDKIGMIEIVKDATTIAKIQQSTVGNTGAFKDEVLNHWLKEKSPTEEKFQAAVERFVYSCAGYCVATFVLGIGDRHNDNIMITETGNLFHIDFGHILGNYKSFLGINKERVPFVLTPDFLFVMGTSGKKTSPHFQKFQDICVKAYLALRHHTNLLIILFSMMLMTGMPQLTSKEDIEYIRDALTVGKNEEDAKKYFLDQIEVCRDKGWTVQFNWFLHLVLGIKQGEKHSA

Take `CNC(=O)Nc1cc2n(n1)CCN2c1ccc(S(C)(=O)=O)cc1` [Compound I-89]: the “mutagenicity (FAT test)” value in data set [1] is on record as “(−)”. Regarding `CNC(=O)Nc1nc2c(s1)CN(c1ccnc(OC)n1)CC2` [Compound I-142], the “mutagenicity (FAT test)” value in data set [1] is recorded as “(−)”. In the case of `COc1cc(N2CCc3nc(NC(=O)NCC(=O)O)sc3C2)nc(OC)n1` [Compound I-208], the affinity at PI-3 kinase γ corresponds to a Ki of 22 nM. On the same count and under the same terms, in the case of `COc1cc(N2CCc3nc(NC(=O)NCc4cc(=O)[nH]o4)sc3C2)nc(OC)n1` [Compound I-279] it was 29 nM. Regarding `CN1CCc2cc(N3CCn4nc(NC(=O)c5cccnc5)cc43)ccc2C1=O` [Compound I-347], the inhibition in data set [2] came out at 80.6%. With `CN1CCc2cc(N3CCn4nc(NC(=O)c5ccco5)cc43)ccc2C1=O` [Compound I-358], in data set [2], the inhibition was 95.9%. For the same molecule, the “mutagenicity (FAT test)” value in data set [1] was “(−)”.
